Data taken from article PMC7725785, “TRIB3 promotes MYC-associated lymphoma development through suppression of UBE3B-mediated MYC degradation” (Nature Communications, 2020).
Where a SMILES comes first, the peptide text is derived from it. The star is where a group is joined. Cbz = O=C(OCc1ccccc1)*

Key:
MYC ubiquitination = experiment: UBE3B-mediated MYC ubiquitination in HEK 293T cells with GSK3 inhibitor; format: cell-based; conditions: GSK3 inhibitor 10 µM for 12 hr, Co-IP, result in words
Experimental: HEK 293T cells were cotransfected with Myc-tagged MYC, HA-tagged or Flag-tagged ubiquitin, and other indicated plasmids. Cells were pretreated for 6 h with MG132 (Sigma Aldrich, C2211) at a concentration of 20 μM, and cell extracts were prepared using lysis buffer containing 1% TX-100 supplemented with 1 mg/ml iodoacetamide. We used a monoclonal anti-HA Affinity Gel (Bimake.com, B23302) or a ubiquitin antibody (CST, #3933S, 5 μg/IP) to purify ubiquitinylated proteins. Precipitates were analyzed by immunoblot with an anti-MYC antibody (CST, #9402 S, 1:1000).
Suppleme n t a ry F i g ur e 4 . U B E3 B I n d uc e d MYC Ubiquitina tion a t Lys ine 4 27 . Re la te d to Fig. 3 . […]
(d) The direct interaction of UBE3B and MYC in the purified system. […] HEK 293T cells were transfected with th e indicated mutants of MYC, and the ubiquitination of MYC was detected by Co -IP assays. […] HEK 293T cells were transfected with the indicated mutants of MYC, and the ubiquitination of MYC was detected by Co-IP assays. […] HEK 293T cells were transfected with the indicated mutants of MYC, and the degradation of MYC was detected by western blotting. […]
Raji cells were transfected with the indicated siRNAs and plasmids, and the ubiquitination of MYC was detected by Co-IP assays. […] Th e MY C protein was detected by Western blot analysis with GAPDH as a loading control. […] The MYC ubiquitination was detected by Co-IP assays . […]

[1] = tested on: Myc^EμCre^ERT2Trib3^F/+ mice; experiment: Survival of Myc^EμCre^ERT2Trib3^F/+ mice treated with vehicle or tamoxifen (induced Trib3 deletion); format: in vivo, mouse
Source text: NOD-scid IL2Rg^null (NSG) mice (4–6 weeks old, male) were purchased from the Nanjing Biomedical Research Institute of Nanjing University (Nanjing, China). Trib3-knockout (Trib3^loxP/loxP, Trib3^F/F) mice (5–6 weeks old, male) were generated as described in our previous study (Li et al.[18]). Cre^ERT2 (B6. Cg-Tg(CAG-cre/Esr1*)5Amc/J) mice (5–6 weeks old, 1 male and 2 females) (The Jackson Laboratory, 004682) were obtained from The Jackson Laboratory (CA, USA). When Cre^ERT2 transgenic mice bred with mice containing loxP-flanked sequences, tamoxifen-inducible Cre-mediated recombination results in deletion of the floxed sequences in widespread cells/tissues of the offspring. Cre^Lck (B6. Cg-Tg(Lck-cre)548Jxm/J) mice (5–6 weeks old, 1 male and 2 females; The Jackson Laboratory, 003802), and Cre^CD19 (B6.129P2(C)-Cd19tm1(cre)Cgn/J) mice (5–6 weeks old, 1 male and 2 females; The Jackson Laboratory, 006785) were obtained from the Shanghai Research Center for Model Organisms (Shanghai, China). B6.129P2-Lyz2tm1(cre)/Nju (LysM-Cre) mice(5–6 weeks old, 1 male and 2 females; N000056) were obtained from Model Animal Resource Information Platform. […] Deletion of Trib3 was corroborated by quantitative PCR and immunoblot analysis. […]

TRIB3 protein = molecular target: T1, TRIB3 protein (Homo sapiens, UniProt Q96RU7); experiment: SPR kinetic interaction of α-helical peptides (CM1-CM4) with TRIB3; format: binding; conditions: result in words
T1 construct: GST; purchased Sinobiological Inc. 10731-H09B
T1 sequence (Q96RU7 1-358): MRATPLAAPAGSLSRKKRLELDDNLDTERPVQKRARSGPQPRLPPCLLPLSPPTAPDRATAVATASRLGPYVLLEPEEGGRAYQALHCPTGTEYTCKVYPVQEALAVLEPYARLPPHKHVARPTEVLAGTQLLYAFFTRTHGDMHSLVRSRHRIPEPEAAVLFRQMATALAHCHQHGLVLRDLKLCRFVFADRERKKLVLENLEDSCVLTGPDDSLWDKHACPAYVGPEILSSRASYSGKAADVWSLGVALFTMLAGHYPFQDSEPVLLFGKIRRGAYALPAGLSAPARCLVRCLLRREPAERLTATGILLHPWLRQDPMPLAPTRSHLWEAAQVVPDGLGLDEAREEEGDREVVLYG
Experimental: (§1) Binding kinetics between MYC and UBE3B, TRIB3 and the indicated α helical peptides, MAX and the indicated α helical peptides, or MYC and MAX were analyzed using a BIAcore T200 instrument (GE Healthcare, CA, USA) as described previously. Briefly, binding reactions were performed in HBS-EP buffer (GE Healthcare) at pH 7.4. TRIB3/MYC/MAX protein was coated on the flow cell of a CM5 sensor chip by direct immobilization. Another flow cell, not coated with an immobilized protein, was used to evaluate nonspecific binding. The binding analyses were performed at a flow rate of 25 μl/min at 25 °C. A total of 0–200 nM peptide or 0–500 nM TRIB3 protein was passed over the surface of the sensor chip. The association rate constant (Ka) and the dissociation rate constant (Kd) were calculated according to the BIA evaluation software. The dissociation constant (KD) was determined by Kd/Ka.

MAX protein = experiment: SPR kinetic interaction of α-helical peptides (CM1-CM4) with MAX; format: binding; conditions: result in words
Experimental: as §1

MAX and MYC = experiment: SPR kinetic interaction of MAX and MYC proteins with indicated peptides (CM1-CM4); format: binding; conditions: result in words
Experimental: as §1

[2] = tested on: MYC protein in Raji cells; experiment: MYC degradation in control or TRIB3-deleted Raji cells with CHX or CHX plus MG132; format: cell-based, human; conditions: result in words
Experimental: Co-IP experiments were performed as described previously. Briefly, cells were collected and lysed for 30 min on ice. Soluble lysates were incubated with the indicated antibodies at 4 °C overnight, followed by incubation with Protein A/G Plus-Agarose (Santa Cruz Biotechnology, TX, USA) at 4 °C for 2 h. Soluble lysates were incubated with the indicated Anti-Myc magnetic beads (Bimake.com, B26302), Anti-Flag Affinity Gel (Bimake.com, B23102) or Anti-HA Affinity Gel (Bimake.com, B23302) at 4 °C overnight. Immunocomplexes were separated from the beads and then boiled for 10 min. The precipitated proteins were subjected to SDS-PAGE and blotted with specific antibodies. For immunoblotting assays, proteins were extracted from cells, spleens, or lymphoma tissues using RIPA buffer (Cell Signaling Technology, MA, USA). A BCA Protein Assay Kit was used to determine protein concentrations. Protein extracts were separated by SDS-PAGE, transferred onto PVDF membranes, and subjected to immunoblot analysis. Western blot images were captured by a Tanon 5200 chemiluminescent imaging system (Tanon, Shanghai, […]). Human lymphoma and benign LN paraffin tissue microarrays were purchased from US Biomax (LM482a).

TRIB3 and MYC = experiment: SPR kinetic interaction of TRIB3 and MYC proteins with or without CM4; format: binding; conditions: in vitro, result in words
Experimental: as §1

Row | Molecule | effect on the binding of MYC and MAX (MAX and MYC) | binding affinity for TRIB3 (TRIB3 protein) | ability to bind MAX (MAX protein) | also measured
1 | Cc1c[nH]c(-c2cnc(NCCNc3ccc(C#N)cn3)nc2-c2ccc(Cl)cc2Cl)n1 [CT99021] | – | – | – | UBE3B-mediated MYC ubiquitination (MYC ubiquitination): decreased
2 | CC/C(=C(\c1ccccc1)c1ccc(OCCN(C)C)cc1)c1ccccc1 [Tamoxifen, tamoxifen] | – | – | – | survival of lymphoma mice ([1]; tamoxifen 250 mg/kg i.p. (induces Trib3 deletion), result in words): none of the tamoxifen-treated Myc^Eμ Cre^ERT2Trib3^F/+ mice died within 180 days; Survival status at day 180 (0: alive, 1: dead) ([1]; tamoxifen 250 mg/kg, status of individual mice at Day 180, Fig 1k source data): 0
3 | CC(C)C[C@@H](C=O)NC(=O)[C@H](CC(C)C)NC(=O)[C@H](CC(C)C)NC(=O)OCc1ccccc1 [MG132] (Cbz-Leu-Leu-Leu-aldehyde) | – | – | – | effect on the shortened MYC half-life induced by TRIB3 knockdown [2]: reversed
4 | LRKERQRLEKQLHK [scramble peptide of CM4, reference compound] | – | – | – | effect on the binding affinity of TRIB3 and MYC (TRIB3 and MYC): not

Second part, led by results:

Row | effect on the binding of MYC and MAX (MAX and MYC) | Molecule | binding affinity for TRIB3 (TRIB3 protein) | ability to bind MAX (MAX protein) | also measured
5 | not | QAEEQKLISEEDLLR [CM3, α-helical peptide derived from C terminus of MYC] | only CM4 displayed a high binding affinity | not | –
6 | not | KVVILKKATAYILSV [CM2, α-helical peptide derived from C terminus of MYC] | only CM4 displayed a high binding affinity | not | –
7 | decreased the binding of MYC and MAX | ERQRRNELKRSFFALR [CM1, α-helical peptide derived from C terminus (HLH domain) of MYC] | only CM4 displayed a high binding affinity | showed a high ability to bind MAX | –
